We go through one compound from patent US20220409633A1, “COMPOSITION COMPRISING BUDESONIDE FOR OPHTHALMIC USE” (NTC S.R.L., priority 2019, published 2022).

A short description of data set [1]: Average size distribution of micronized budesonide powder by laser diffractometer. Conditions: FIG. 5. In kind it is physicochemical. From the text: Preferably, said budesonide has an average size distribution shown in the diagram of FIG. 5, and in tabular form in Table A.1 below (in which the numerical values are expressed in μm).
In Table A.1, the parameters Dx(10), Dx(50) and Dx(90) respectively indicate that 10%, 50% and 90% by weight of the particles analysed have a dimensional distribution below the numerical values (expressed in μm) indicated in such Table.
For example, the average size distribution could be determined by means of a Spraytec laser diffractometer (Malvern Panalytics, UK), preferably using the instrumental operating parameters shown in Table A.2 below, where the parameters not specified in such table were maintained as per default specifications of the laser diffractometer.

Data set [2] can be described thus: Cumulative distribution Q3% (HELOS Particle Size Analysis) of budesonide powder. Type of data set: physicochemical. Conditions: FIG. 4. From the text:
FIGS. 3 and 4 respectively show a diagram of the Cumulative Distribution Q3% (HELOS Particle Size Analysis) with respect to the particle size in μm, and a table corresponding to said diagram of the Cumulative Distribution with standard deviation, according to a possible embodiment of the budesonide that can be used in this invention. […] In this range of there is half the total weight, almost as in the remaining […]; Said budesonide is obtained and supplied by the manufacturer already in this form according to an average size distribution shown in the diagram of FIG. 3, and in tabular form in FIG. 4, which show the cumulative distribution Q3% with respect to the particle size in μm.

The conditions of data set [3]: cited from earlier work.

The structures appear in SMILES notation.

Take `CCCC1O[C@@H]2C[C@H]3[C@@H]4CCC5=CC(=O)C=C[C@]5(C)[C@H]4[C@@H](O)C[C@]3(C)[C@]2(C(=O)CO)O1` (stereo partly drawn) [budesonide]: the “Dx(10)” value in data set [1] (10% by weight of particles below this size) is given as 1.10 μm. Moreover, the “Dx(50)” value in data set [1] (50% by weight of particles below this size) worked out at 2.02 μm. Also, the “Dx(90)” value in data set [1] (90% by weight of particles below this size) came out at 3.68 μm. Further, the entries for the “Cumulative Distribution Q3%” value in data set [2] (x0/μm=2,50) and in data set [2] (x0/μm=3.75) were 90,32% and 99,01%, respectively. Besides, the solubility in water result in data set [3] was “not water-soluble”.
